According to patent US20220235065A1 (Epizyme, Inc., priority 2016, published 2022):

How the values were obtained:
EHMT1 = molecular target: T1, EHMT1 (Homo sapiens, UniProt Q9H9B1); experiment: EHMT1 PEP (EHMT1 peptide enzyme assay); format: biochemical; conditions: peptide substrate enzyme assay
T1 sequence (Q9H9B1 1-1298): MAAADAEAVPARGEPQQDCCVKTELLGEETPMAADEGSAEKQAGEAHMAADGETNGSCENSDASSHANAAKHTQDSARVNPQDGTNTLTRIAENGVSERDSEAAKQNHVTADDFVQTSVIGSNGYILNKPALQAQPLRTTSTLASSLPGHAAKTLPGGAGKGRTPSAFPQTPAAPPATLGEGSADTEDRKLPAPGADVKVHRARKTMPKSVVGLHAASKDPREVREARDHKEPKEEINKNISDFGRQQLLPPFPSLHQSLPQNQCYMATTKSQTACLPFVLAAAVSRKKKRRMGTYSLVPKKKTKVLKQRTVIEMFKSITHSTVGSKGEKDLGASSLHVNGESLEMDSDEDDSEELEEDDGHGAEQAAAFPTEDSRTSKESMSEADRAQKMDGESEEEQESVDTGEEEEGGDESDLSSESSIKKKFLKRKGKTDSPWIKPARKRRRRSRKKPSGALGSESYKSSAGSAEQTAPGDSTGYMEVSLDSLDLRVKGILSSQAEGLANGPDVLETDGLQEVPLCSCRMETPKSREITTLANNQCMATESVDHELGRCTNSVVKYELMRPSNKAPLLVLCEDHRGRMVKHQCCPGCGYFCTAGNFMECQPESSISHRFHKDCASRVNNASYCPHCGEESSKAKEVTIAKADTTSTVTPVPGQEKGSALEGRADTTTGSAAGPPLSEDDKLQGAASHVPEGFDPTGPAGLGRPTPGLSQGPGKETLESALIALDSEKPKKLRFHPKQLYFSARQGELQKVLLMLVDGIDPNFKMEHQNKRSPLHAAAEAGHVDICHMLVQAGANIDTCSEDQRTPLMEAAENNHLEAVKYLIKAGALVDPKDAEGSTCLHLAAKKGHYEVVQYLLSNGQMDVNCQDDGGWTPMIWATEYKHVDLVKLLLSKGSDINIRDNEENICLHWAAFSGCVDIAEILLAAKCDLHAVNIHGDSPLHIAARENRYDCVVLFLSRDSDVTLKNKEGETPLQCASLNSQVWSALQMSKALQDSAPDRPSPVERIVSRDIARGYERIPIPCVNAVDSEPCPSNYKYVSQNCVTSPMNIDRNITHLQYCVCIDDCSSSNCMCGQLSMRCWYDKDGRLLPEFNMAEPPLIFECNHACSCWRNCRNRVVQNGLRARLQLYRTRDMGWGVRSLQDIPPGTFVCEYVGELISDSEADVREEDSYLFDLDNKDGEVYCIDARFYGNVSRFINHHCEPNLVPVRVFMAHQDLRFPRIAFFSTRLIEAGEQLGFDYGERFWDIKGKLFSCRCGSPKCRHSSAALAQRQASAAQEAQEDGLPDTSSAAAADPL

[1] = system: H3K9me2 in MDA-MB-231 cells; experiment: MDA-MB-231 H3K9me2 in-cell western assay; format: cell-based; conditions: Homo sapiens, read-out: EHMT2 ICW (IC50 μM)
Method in brief: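 MDA-MB-231 cells (3,000/well) exposed to compound for two consecutive 48 h periods at 37 °C, then fixed and stained for H3K9me2, with DRAQ5 as DNA stain and infrared read at 700/800 nm. Percent inhibition was set between DMSO and UNC0638 control wells. IC50 came from triplicate dose–response fits with a four-parameter model, top 100%, bottom 0%.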

IC50 (EHMT1)	IC50 [1]	SMILES
0.1 to 1 µM	> 10 µM	COc1cc2c(cc1-c1cc3[nH]ccc3cn1)N=C(NCC(N)=O)C21CCC1 [Compound 309]
< 0.1 µM	0.1 to 1 µM	CCc1ccc(Nc2nc(C)cc(NC)n2)cc1-n1cc(CNC)cn1 [Compound 320]
< 0.1 µM	0.1 to 1 µM	CNC1=Nc2cc(-n3cc(CN4CCC4)cn3)c(OC)cc2C12CCC2 [Compound 314]

More lines, now with the values behind:

SMILES	IC50 (EHMT1)	IC50 [1]
CNc1nc(Nc2ccc(OC)c(-n3ncc4c3CCNC4)c2)nc(C)c1F [Compound 28, 5-fluoro-2-N-(4-methoxy-3-[1H,4H,5H,6H,7H-pyrazolo[4,3-c]pyridin-1-yl]phenyl)-4-N,6-dimethylpyrimidine-2,4-diamine trifluoroacetic acid]	1 to 10 µM	1 to 10 µM
CNc1nc(Nc2ccc(OC)c(-n3cc4c(n3)CCNC4)c2)nc(C)c1F [Compound 27, 5-fluoro-2-N-(4-methoxy-3-[2H,4H,5H,6H,7H-pyrazolo[4,3-c]pyridin-2-yl]phenyl)-4-N,6-dimethylpyrimidine-2,4-diamine trifluoroacetic acid]	0.1 to 1 µM	1 to 10 µM
CNc1cc(C)nc(Nc2ccc(C)c(-c3cc4ccccc4[nH]3)c2)n1 [Compound 274]	1 to 10 µM	> 10 µM
CNc1cc(C)nc(Nc2ccc(OC)c(-c3cccc4[nH]ncc34)c2)n1 [Compound 37, 2-N-[3-(1H-indazol-4-yl)-4-methoxyphenyl]-4-N,6-dimethylpyrimidine-2,4-diamine; trifluoroacetic acid]	> 10 µM	> 10 µM
CNc1cc(C)nc(Nc2ccc(C)c(-c3nc4ccncc4[nH]3)c2)n1 [Compound 279]	< 0.1 µM	1 to 10 µM
CNc1cc(C)nc(Nc2ccc(OC)c(-n3ncc4cnccc43)c2)n1 [Compound 35, 2-N-(4-methoxy-3-[1H-pyrazolo[4,3-c]pyridin-1-yl]phenyl)-4-N,6-dimethylpyrimidine-2,4-diamine; trifluoroacetic acid]	1 to 10 µM	1 to 10 µM
